# Measurements reported in patent US7301070B2, “Plant fatty acid synthases and use in improved methods for production of medium-chain fatty acids” (Calgene LLC, priority 1997, dated 2007).
# Legend:
# [1] = test system: fatty acid synthesis in Brassica seed extracts; assay: In vitro fatty acid synthesis assay in seed extracts preincubated with cerulenin; assay type: biochemical
# Protocol: (§1) Seed extracts were prepared from developing seeds of nontransgenic controls or transgenic Brassica expressing chKAS A-2-7 as described in Slabaugh et al. (Plant Journal, 1998 in press) and Leonard et al. (Plant Journal, 1998, in press). In vitro fatty acid synthesis assays were performed as described by Post-Beittenmiller (J. Biol. Chem. (1991), 266:1858-1865). Extracts were concentrated by ammonium sulfate precipitation and desalting using P-6 columns (Bio-Rad, Hercules, Calif.). Reactions (65 μl) contained 0.1M Tris/HCl (pH 8.0), 1 mM dithiothreitol, […] recombinant spinach ACP1, 1 mM NADH, 2 mM NADPH, 50 μM malonyl-CoA, 10 μM [1-^14C]acetyl-CoA (50 mCi/mmol), 1 mg/ml BSA, and 0.25 mg/ml seed protein. Selected seed extracts were preincubated with cerulenin at 23° C. for 10 min. Reaction products were separated on an 18% acrlamide gel containing 2.25M urea, electroblotted onto to nitrocellulose and quntitated by phosporimaging using Image QuaNT software (Molecular Dynamics, Sunnyvale, Calif.). Authentic acyl-ACPs were run in parallel, immunoblotted and finally detected by anti-ACP serum to confirm fatty acid chain lengths.
# Synthase II (KAS II) = conditions: higher concentrations than KAS I; cited from earlier work
# Synthase I (KAS I) = conditions: cited from earlier work
# Synthase III = conditions: cited from earlier work
# Ch KAS A-2-7 = assay: In vitro fatty acid synthesis assay, seed extracts of transgenic Brassica expressing chKAS A-2-7; assay type: biochemical, Cuphea hookeriana; conditions: conclusion from FIG. 22 data
# Protocol: as §1
structure (smiles),measurement,setting,value
C/C=C/C/C=C/CCC(=O)[C@H]1O[C@H]1C(N)=O [cerulenin],inhibition of extension of the spinach-ACP by cerulenin,[1]; seed extracts from transgenic lines compared with nontransgenic control Brassica,much less inhibited
same,synthesis of longer chain fatty acids after pretreatment of extracts with cerulenin,"[1]; transgenic (5401-9) and nontransgenic control seed extracts, preincubated at 23° C. for 10 min",markedly reduced
same,concentration of cerulenin at which KAS II is inhibited,Synthase II (KAS II),50 µM
same,concentration of cerulenin at which KAS I is sensitive to inhibition,Synthase I (KAS I),1 µM
same,sensitivity of synthase III to cerulenin inhibition,Synthase III,insensitive to inhibition by cerulenin
same,sensitivity of chKAS A-2-7 to cerulenin,Ch KAS A-2-7,cerulenin-resistant
